Source: the kinase profiling compilation of Christmann-Franck et al. (2016)

Experiments:
Experiment in all cases: KINOMEscan competition binding
Settings in all cases: compound 10.0 µM
FLT3 (human) = FLT3 (human) (UniProt P36888)
HUNK (human) = HUNK (human) (UniProt P57058)
STK32A (human) = STK32A (human) (UniProt Q8WU08)
MARK4 (human) = MARK4 (human) (UniProt Q96L34)
MAPK1 (human) = MAPK1 (human) (UniProt P28482)
MAP2K5 (human) = MAP2K5 (human) (UniProt Q13163)
SGK110 (human) = SGK110 (human) (UniProt P0C264)
MARK3 (human) = MARK3 (human) (UniProt P27448)
CDK17 (human) = CDK17 (human) (UniProt Q00537)
MARK1 (human) = MARK1 (human) (UniProt Q9P0L2)
TEK (human) = TEK (human) (UniProt Q02763)
EIF2AK2 (human) = EIF2AK2 (human) (UniProt P19525)
STK36 (human) = STK36 (human) (UniProt Q9NRP7)
ABL2 (human) = ABL2 (human) (UniProt P42684)
LYN (human) = LYN (human) (UniProt P07948)
DDR2 (human) = DDR2 (human) (UniProt Q16832)
STK16 (human) = STK16 (human) (UniProt O75716)
MAP2K2 (human) = MAP2K2 (human) (UniProt P36507)
MAPKAPK2 (human) = MAPKAPK2 (human) (UniProt P49137)
DMPK (human) = DMPK (human) (UniProt Q09013)
TGFBR2 (human) = TGFBR2 (human) (UniProt P37173)
MYLK4 (human) = MYLK4 (human) (UniProt Q86YV6)
[1] = system: ABL1 (human), P00519 [Y253F]
BMPR1A (human) = BMPR1A (human) (UniProt P36894)
EPHB6 (human) = EPHB6 (human) (UniProt O15197)
CAMKK2 (human) = CAMKK2 (human) (UniProt Q96RR4)
MAP3K15 (human) = MAP3K15 (human) (UniProt Q6ZN16)
TEC (human) = TEC (human) (UniProt P42680)
PLK1 (human) = PLK1 (human) (UniProt P53350)
PHKG1 (human) = PHKG1 (human) (UniProt Q16816)
SGK3 (human) = SGK3 (human) (UniProt Q96BR1)
PIK3C2G (human) = PIK3C2G (human) (UniProt O75747)
PRKCH (human) = PRKCH (human) (UniProt P24723)
RIOK1 (human) = RIOK1 (human) (UniProt Q9BRS2)
DYRK1B (human) = DYRK1B (human) (UniProt Q9Y463)
ICK (human) = ICK (human) (UniProt Q9UPZ9)
TAOK1 (human) = TAOK1 (human) (UniProt Q7L7X3)
STK38 (human) = STK38 (human) (UniProt Q15208)
FRK (human) = FRK (human) (UniProt P42685)
RPS6KA4 KD2 (human) = RPS6KA4 KD2 (human) (UniProt O75676)

Chain of SGK110 (human) (P0C264 whole entry, looked up): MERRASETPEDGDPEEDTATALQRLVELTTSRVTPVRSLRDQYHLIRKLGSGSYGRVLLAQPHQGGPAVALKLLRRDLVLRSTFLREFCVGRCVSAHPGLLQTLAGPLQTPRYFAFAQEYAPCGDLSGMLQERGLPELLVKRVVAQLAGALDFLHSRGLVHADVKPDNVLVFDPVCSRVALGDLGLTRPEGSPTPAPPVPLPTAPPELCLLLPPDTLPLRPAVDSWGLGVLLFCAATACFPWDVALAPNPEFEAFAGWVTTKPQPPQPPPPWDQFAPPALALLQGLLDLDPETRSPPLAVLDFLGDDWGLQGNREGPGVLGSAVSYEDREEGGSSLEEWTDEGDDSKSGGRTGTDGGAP
Chain of PIK3C2G (human) (O75747 whole entry, looked up): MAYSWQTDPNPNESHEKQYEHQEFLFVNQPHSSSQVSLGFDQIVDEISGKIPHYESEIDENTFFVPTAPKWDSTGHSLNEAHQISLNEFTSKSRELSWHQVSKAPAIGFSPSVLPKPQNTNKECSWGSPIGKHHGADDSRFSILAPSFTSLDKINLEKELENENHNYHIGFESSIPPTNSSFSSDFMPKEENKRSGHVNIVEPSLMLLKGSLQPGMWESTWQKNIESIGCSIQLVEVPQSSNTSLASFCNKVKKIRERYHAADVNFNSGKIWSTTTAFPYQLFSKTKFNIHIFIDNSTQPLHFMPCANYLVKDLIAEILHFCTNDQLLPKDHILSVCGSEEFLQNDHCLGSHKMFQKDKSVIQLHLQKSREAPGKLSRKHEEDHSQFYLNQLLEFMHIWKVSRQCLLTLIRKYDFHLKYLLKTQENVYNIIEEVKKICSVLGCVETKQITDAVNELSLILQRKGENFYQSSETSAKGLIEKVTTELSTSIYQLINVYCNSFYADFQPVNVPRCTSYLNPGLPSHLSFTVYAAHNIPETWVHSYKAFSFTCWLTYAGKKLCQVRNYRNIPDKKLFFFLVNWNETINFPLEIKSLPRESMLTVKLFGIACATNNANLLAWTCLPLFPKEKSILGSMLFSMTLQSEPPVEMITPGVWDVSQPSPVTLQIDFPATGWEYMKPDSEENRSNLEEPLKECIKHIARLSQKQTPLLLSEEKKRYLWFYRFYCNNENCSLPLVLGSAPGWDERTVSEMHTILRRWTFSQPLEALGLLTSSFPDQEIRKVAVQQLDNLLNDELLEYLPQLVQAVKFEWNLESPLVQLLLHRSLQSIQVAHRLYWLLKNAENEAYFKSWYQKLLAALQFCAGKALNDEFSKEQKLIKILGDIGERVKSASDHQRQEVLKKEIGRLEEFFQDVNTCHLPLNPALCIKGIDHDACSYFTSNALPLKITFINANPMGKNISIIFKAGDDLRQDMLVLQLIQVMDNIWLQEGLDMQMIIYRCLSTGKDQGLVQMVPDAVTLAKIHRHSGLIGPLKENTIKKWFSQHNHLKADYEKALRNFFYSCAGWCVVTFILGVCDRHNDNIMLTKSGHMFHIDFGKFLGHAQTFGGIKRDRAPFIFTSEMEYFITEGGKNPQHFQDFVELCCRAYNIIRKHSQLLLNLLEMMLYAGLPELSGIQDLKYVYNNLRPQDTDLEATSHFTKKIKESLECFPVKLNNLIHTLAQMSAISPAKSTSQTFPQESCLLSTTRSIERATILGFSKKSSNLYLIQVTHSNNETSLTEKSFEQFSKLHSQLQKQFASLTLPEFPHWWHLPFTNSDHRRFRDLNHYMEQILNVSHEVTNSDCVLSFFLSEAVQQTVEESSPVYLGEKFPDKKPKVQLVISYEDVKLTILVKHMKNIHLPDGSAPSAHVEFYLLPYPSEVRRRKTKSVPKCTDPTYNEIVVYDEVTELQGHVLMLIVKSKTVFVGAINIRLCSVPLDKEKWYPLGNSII
Chain of MAPK1 (human) (P28482 whole entry, looked up): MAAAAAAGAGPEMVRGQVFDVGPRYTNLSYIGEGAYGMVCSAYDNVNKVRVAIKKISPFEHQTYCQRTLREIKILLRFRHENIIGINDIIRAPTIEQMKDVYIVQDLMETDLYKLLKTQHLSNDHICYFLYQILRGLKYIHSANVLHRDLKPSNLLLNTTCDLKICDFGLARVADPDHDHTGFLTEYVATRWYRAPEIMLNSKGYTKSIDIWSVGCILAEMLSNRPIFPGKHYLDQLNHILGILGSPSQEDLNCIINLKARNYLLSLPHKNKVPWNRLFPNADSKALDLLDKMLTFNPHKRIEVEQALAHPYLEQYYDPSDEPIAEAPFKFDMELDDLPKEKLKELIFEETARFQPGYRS
Chain of FRK (human) (P42685 whole entry, looked up): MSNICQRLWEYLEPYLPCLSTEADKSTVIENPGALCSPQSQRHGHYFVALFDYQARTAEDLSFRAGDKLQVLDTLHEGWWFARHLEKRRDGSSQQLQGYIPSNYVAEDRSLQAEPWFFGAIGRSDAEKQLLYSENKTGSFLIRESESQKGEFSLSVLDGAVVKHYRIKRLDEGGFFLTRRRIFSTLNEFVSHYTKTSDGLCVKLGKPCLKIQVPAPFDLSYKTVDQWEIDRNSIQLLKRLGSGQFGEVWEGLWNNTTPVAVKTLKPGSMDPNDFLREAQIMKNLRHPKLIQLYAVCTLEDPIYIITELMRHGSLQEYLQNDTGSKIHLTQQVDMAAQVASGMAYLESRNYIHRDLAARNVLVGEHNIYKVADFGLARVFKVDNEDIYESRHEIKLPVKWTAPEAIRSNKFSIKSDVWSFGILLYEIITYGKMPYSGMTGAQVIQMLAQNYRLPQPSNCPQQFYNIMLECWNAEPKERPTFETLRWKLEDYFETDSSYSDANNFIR
Chain of MAP3K15 (human) (Q6ZN16 whole entry, looked up): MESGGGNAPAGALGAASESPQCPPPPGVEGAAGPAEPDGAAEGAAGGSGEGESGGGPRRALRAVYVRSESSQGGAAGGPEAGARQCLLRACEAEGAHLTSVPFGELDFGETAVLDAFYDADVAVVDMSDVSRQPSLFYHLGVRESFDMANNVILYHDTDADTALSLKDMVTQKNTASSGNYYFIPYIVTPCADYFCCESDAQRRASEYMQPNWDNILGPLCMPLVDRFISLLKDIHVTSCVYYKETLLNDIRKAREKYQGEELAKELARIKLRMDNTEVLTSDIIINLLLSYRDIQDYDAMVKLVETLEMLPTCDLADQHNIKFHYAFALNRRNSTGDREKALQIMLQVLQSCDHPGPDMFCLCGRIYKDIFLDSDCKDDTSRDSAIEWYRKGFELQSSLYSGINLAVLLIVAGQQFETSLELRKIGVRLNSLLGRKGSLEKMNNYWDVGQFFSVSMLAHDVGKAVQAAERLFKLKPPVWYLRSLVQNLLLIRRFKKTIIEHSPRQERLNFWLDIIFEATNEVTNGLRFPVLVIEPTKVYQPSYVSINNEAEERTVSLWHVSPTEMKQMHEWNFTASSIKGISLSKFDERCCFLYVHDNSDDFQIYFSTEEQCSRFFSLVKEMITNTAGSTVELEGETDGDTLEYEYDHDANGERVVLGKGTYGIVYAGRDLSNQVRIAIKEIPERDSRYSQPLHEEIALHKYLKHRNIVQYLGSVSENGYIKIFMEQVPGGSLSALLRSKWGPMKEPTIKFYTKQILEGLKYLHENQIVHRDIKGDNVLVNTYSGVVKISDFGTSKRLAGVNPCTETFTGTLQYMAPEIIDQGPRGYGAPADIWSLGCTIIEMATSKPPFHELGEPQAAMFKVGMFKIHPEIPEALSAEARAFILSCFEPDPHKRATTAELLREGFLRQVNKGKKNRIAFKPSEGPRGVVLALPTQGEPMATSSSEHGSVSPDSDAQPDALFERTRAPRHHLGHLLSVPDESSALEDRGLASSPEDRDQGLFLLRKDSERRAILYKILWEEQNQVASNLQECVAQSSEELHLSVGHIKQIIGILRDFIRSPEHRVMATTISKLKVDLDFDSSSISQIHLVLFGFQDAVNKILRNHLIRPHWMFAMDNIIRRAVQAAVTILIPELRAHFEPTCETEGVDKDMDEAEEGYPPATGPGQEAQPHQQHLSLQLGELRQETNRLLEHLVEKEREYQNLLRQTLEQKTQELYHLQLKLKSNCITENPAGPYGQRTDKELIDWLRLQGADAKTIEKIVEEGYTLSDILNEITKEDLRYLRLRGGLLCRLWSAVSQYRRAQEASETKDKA
Chain of MARK1 (human) (Q9P0L2 whole entry, looked up): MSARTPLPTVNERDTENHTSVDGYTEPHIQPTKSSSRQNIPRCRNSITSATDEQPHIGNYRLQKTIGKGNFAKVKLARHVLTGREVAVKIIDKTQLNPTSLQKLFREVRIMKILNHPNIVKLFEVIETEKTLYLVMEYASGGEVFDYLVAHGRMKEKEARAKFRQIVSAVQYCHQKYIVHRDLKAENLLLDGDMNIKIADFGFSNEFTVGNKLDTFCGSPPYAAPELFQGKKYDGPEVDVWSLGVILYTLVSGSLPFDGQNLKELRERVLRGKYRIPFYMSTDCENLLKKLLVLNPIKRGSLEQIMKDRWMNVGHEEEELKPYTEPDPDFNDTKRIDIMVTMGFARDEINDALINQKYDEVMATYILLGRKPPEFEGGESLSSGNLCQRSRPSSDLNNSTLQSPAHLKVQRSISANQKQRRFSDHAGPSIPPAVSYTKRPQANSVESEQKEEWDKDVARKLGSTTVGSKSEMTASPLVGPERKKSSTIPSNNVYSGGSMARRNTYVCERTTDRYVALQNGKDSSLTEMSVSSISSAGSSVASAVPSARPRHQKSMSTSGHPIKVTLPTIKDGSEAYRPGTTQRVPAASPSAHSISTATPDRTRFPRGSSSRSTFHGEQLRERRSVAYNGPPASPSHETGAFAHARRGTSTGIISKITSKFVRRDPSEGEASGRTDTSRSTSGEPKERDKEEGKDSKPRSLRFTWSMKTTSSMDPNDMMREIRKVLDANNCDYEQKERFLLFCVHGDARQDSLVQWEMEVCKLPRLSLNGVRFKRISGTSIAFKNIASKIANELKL

Row | SMILES | kinase still bound, per cent of control (HUNK (human)) [%] | kinase still bound, per cent of control (STK32A (human)) [%] | kinase still bound, per cent of control (MARK4 (human)) [%] | kinase still bound, per cent of control (MAPK1 (human)) [%] | kinase still bound, per cent of control (MAP2K5 (human)) [%] | kinase still bound, per cent of control (SGK110 (human)) [%] | kinase still bound, per cent of control (MARK3 (human)) [%] | kinase still bound, per cent of control (CDK17 (human)) [%] | kinase still bound, per cent of control (MARK1 (human)) [%] | kinase still bound, per cent of control (TEK (human)) [%] | kinase still bound, per cent of control (EIF2AK2 (human)) [%] | kinase still bound, per cent of control (STK36 (human)) [%] | kinase still bound, per cent of control (LYN (human)) [%] | kinase still bound, per cent of control (DDR2 (human)) [%] | kinase still bound, per cent of control (STK16 (human)) [%] | kinase still bound, per cent of control (MAP2K2 (human)) [%] | kinase still bound, per cent of control (MAPKAPK2 (human)) [%] | kinase still bound, per cent of control (DMPK (human)) [%] | kinase still bound, per cent of control (TGFBR2 (human)) [%] | kinase still bound, per cent of control (MYLK4 (human)) [%] | other results
1 | NC(=O)Nc1cc(-c2cccc(F)c2)sc1C(=O)N[C@@H]1CCCNC1 | 68 | 1 | 2.2 | 65 | 0.05 | 0 | 0.85 | 84 | 2.6 | 17 | 3.4 | 74 | 0.65 | 0 | 21 | 0 | 0 | 12 | 2.4 | 51 | kinase still bound, per cent of control (FLT3 (human)): 0%; kinase still bound, per cent of control (ABL2 (human)): 0.2%; kinase still bound, per cent of control [1]: 0%; kinase still bound, per cent of control (BMPR1A (human)): 0.4%; kinase still bound, per cent of control (EPHB6 (human)): 50%; kinase still bound, per cent of control (CAMKK2 (human)): 2.9%; kinase still bound, per cent of control (MAP3K15 (human)): 28%; kinase still bound, per cent of control (TEC (human)): 0.4%; kinase still bound, per cent of control (PLK1 (human)): 33%; kinase still bound, per cent of control (PHKG1 (human)): 0.1%; kinase still bound, per cent of control (SGK3 (human)): 27%; kinase still bound, per cent of control (PIK3C2G (human)): 64%; kinase still bound, per cent of control (PRKCH (human)): 1.4%; kinase still bound, per cent of control (RIOK1 (human)): 0.4%; kinase still bound, per cent of control (DYRK1B (human)): 1.8%; kinase still bound, per cent of control (ICK (human)): 100%; kinase still bound, per cent of control (TAOK1 (human)): 4.8%; kinase still bound, per cent of control (STK38 (human)): 4%; kinase still bound, per cent of control (FRK (human)): 0.65%; kinase still bound, per cent of control (RPS6KA4 KD2 (human)): 0.35%
2 | O=c1cc(N2CCOCC2)oc2c(-c3cccc4c3sc3ccccc34)cccc12 | 75 | 100 | 100 | 95 | 98 | 100 | 99 | 100 | 100 | 100 | 72 | 100 | 95 | 100 | 98 | 97 | 100 | 89 | 89 | 100 | kinase still bound, per cent of control (FLT3 (human)): 100%; kinase still bound, per cent of control (ABL2 (human)): 92%; kinase still bound, per cent of control [1]: 100%; kinase still bound, per cent of control (BMPR1A (human)): 94%; kinase still bound, per cent of control (EPHB6 (human)): 100%; kinase still bound, per cent of control (CAMKK2 (human)): 88%; kinase still bound, per cent of control (MAP3K15 (human)): 100%; kinase still bound, per cent of control (TEC (human)): 89%; kinase still bound, per cent of control (PLK1 (human)): 94%; kinase still bound, per cent of control (PHKG1 (human)): 100%; kinase still bound, per cent of control (SGK3 (human)): 100%; kinase still bound, per cent of control (PIK3C2G (human)): 16%; kinase still bound, per cent of control (PRKCH (human)): 100%; kinase still bound, per cent of control (RIOK1 (human)): 100%; kinase still bound, per cent of control (DYRK1B (human)): 85%; kinase still bound, per cent of control (ICK (human)): 100%; kinase still bound, per cent of control (TAOK1 (human)): 100%; kinase still bound, per cent of control (STK38 (human)): 100%; kinase still bound, per cent of control (FRK (human)): 91%; kinase still bound, per cent of control (RPS6KA4 KD2 (human)): 100%
3 | COc1cc2ncn(-c3cc(OCc4ccccc4C(F)(F)F)c(C(N)=O)s3)c2cc1OC | 82 | 82 | 99 | 86 | 0.45 | 100 | 78 | 100 | 82 | 57 | 78 | 76 | 60 | 81 | 49 | 85 | 100 | 98 | 100 | 17 | kinase still bound, per cent of control [1]: 88%; kinase still bound, per cent of control (BMPR1A (human)): 100%; kinase still bound, per cent of control (EPHB6 (human)): 9.9%; kinase still bound, per cent of control (CAMKK2 (human)): 44%; kinase still bound, per cent of control (MAP3K15 (human)): 63%; kinase still bound, per cent of control (TEC (human)): 94%; kinase still bound, per cent of control (PLK1 (human)): 0.1%; kinase still bound, per cent of control (PHKG1 (human)): 88%; kinase still bound, per cent of control (SGK3 (human)): 83%; kinase still bound, per cent of control (PIK3C2G (human)): 100%; kinase still bound, per cent of control (PRKCH (human)): 100%; kinase still bound, per cent of control (RIOK1 (human)): 4.1%; kinase still bound, per cent of control (DYRK1B (human)): 87%; kinase still bound, per cent of control (ICK (human)): 100%; kinase still bound, per cent of control (TAOK1 (human)): 47%; kinase still bound, per cent of control (STK38 (human)): 94%; kinase still bound, per cent of control (FRK (human)): 82%; kinase still bound, per cent of control (RPS6KA4 KD2 (human)): 70%
